Measurements taken from PubChem BioAssay (NCI).
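Abbreviation: GI50, concentration required for 50% inhibition of growth. TGI marks complete inhibition of growth.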

Assays:
Assay in all cases: inhibition of tumour cell growth, NCI panel, 384-well format
[1] = tested on: A498 renal
[2] = tested on: MOLT-4 leukemia
[3] = tested on: 786-0 renal
[4] = tested on: SNB-19 CNS
[5] = tested on: BT-549 breast
[6] = tested on: A549 NSCLC
[7] = tested on: HOP-62 NSCLC
[8] = tested on: T-47D breast
[9] = tested on: CCRF-CEM leukemia
[10] = tested on: TK-10 renal
[11] = tested on: SF-268 CNS
[12] = tested on: IGROV1 ovarian
[13] = tested on: DU-145 prostate
[14] = tested on: PC-3 prostate
[15] = tested on: SNB-75 CNS
[16] = tested on: SK-MEL-28 melanoma
[17] = tested on: NCI-H322M lung
[18] = tested on: MCF7 breast
[19] = tested on: HOP-92 NSCLC
[20] = tested on: HS 578T breast
[21] = tested on: MALME-3M melanoma
[22] = tested on: OVCAR-5 ovarian
[23] = tested on: HCC-2998 colon
[24] = tested on: COLO 205 colon
[25] = tested on: SK-OV-3 ovarian
[26] = tested on: HCT-116 colon
[27] = tested on: SR leukemia
[28] = tested on: MDA-MB-435 melanoma
[29] = tested on: RPMI-8226 leukemia
[30] = tested on: OVCAR-8 ovarian
[31] = tested on: UACC-257 melanoma
[32] = tested on: SW-620 colon
[33] = tested on: NCI/ADR-RES ovarian
[34] = tested on: LOX IMVI melanoma
[35] = tested on: SF-539 CNS
[36] = tested on: MDA-MB-231 breast
[37] = tested on: UACC-62 melanoma
[38] = tested on: HL-60(TB) leukemia
[39] = tested on: OVCAR-3 ovarian
[40] = tested on: HCT-15 colon
[41] = tested on: RXF 393 renal
[42] = tested on: SN12C renal
[43] = tested on: SK-MEL-2 melanoma
[44] = tested on: NCI-H522 lung
[45] = tested on: ACHN renal
[46] = tested on: NCI-H460 NSCLC
[47] = tested on: CAKI-1 renal
[48] = tested on: NCI-H23 lung
[49] = tested on: MDA-MB-468 breast
[50] = tested on: EKVX NSCLC
[51] = tested on: M14 melanoma
[52] = tested on: KM12 colon
[53] = tested on: SF-295 CNS
[54] = tested on: SK-MEL-5 melanoma
[55] = tested on: OVCAR-4 ovarian
[56] = tested on: HT29 colon
[57] = tested on: U251 glioblastoma
[58] = tested on: K-562 leukemia

COc1cc(F)ccc1-c1ncnc(Nc2cccc(CS(C)(=N)=O)c2)n1 (centres undefined)
GI50 [1]: 0.448 µM | GI50 [2]: 0.506 µM | TGI [2]: 1.62 µM | GI50 [3]: 0.683 µM | TGI [3]: 3.88 µM | GI50 [4]: 0.988 µM | TGI [4]: > 100 µM | GI50 [5]: 0.773 µM | TGI [5]: 2.6 µM | GI50 [6]: 1.61 µM | TGI [6]: > 100 µM | GI50 [7]: 0.33 µM | TGI [7]: 1.5 µM | GI50 [8]: 3.01 µM | TGI [8]: > 100 µM | GI50 [9]: 0.299 µM | TGI [9]: 1.05 µM | GI50 [10]: 0.819 µM | TGI [10]: > 100 µM | GI50 [11]: 0.331 µM | TGI [11]: 1.41 µM | GI50 [12]: 0.919 µM | TGI [12]: > 100 µM | GI50 [13]: 0.402 µM | TGI [13]: 3.75 µM | GI50 [14]: 0.795 µM | TGI [14]: 4.96 µM | GI50 [15]: 0.592 µM | TGI [15]: 2.18 µM | GI50 [16]: 0.572 µM | TGI [16]: 2.36 µM | GI50 [17]: 0.384 µM | TGI [17]: 2.61 µM | GI50 [18]: 0.408 µM | TGI [18]: > 100 µM | GI50 [19]: 1.7 µM | TGI [19]: > 23.9 µM | GI50 [20]: 0.465 µM | TGI [20]: 1.69 µM | GI50 [21]: 0.843 µM | TGI [21]: 2.3 µM | GI50 [22]: 0.316 µM | TGI [22]: > 100 µM | GI50 [23]: 1 µM | TGI [23]: 3.77 µM | GI50 [24]: 0.339 µM | TGI [24]: 1.92 µM | GI50 [25]: 2.55 µM | TGI [25]: 6.68 µM | GI50 [26]: 0.3 µM | TGI [26]: > 100 µM | GI50 [27]: 0.0395 µM | TGI [27]: 0.112 µM | GI50 [28]: 1.44 µM | TGI [28]: > 19.7 µM | GI50 [29]: 1.7 µM | TGI [29]: 3.08 µM | GI50 [30]: 0.52 µM | TGI [30]: 2.61 µM | GI50 [31]: 1.6 µM | TGI [31]: 3.44 µM | GI50 [32]: 0.776 µM | TGI [32]: 4.82 µM | GI50 [33]: 2.58 µM | TGI [33]: 21.8 µM | GI50 [34]: 0.312 µM | TGI [34]: 1.66 µM | GI50 [35]: 0.986 µM | TGI [35]: 2.82 µM | GI50 [36]: 0.559 µM | TGI [36]: 2.68 µM | GI50 [37]: 0.24 µM | TGI [37]: 1.08 µM | GI50 [38]: 0.182 µM | TGI [38]: 0.391 µM | GI50 [39]: 0.384 µM | TGI [39]: 1.81 µM | GI50 [40]: 0.462 µM | GI50 [41]: 0.228 µM | TGI [41]: 0.586 µM | GI50 [42]: 0.668 µM | TGI [42]: 3.52 µM | GI50 [43]: 1.04 µM | TGI [43]: 2.46 µM | GI50 [44]: 1.77 µM | TGI [44]: 4.12 µM | GI50 [45]: 0.51 µM | TGI [45]: > 100 µM | GI50 [46]: 0.815 µM | TGI [46]: 3.56 µM | GI50 [47]: 0.404 µM | TGI [47]: > 100 µM | GI50 [48]: 0.568 µM | TGI [48]: 2.24 µM | GI50 [49]: 1.12 µM | TGI [49]: 2.47 µM | GI50 [50]: 1.28 µM | TGI [50]: 4.28 µM | GI50 [51]: 0.98 µM | TGI [51]: 3.86 µM | GI50 [52]: 0.322 µM | TGI [52]: 2.12 µM | GI50 [53]: 1.21 µM | TGI [53]: 5.07 µM | GI50 [54]: 0.455 µM | TGI [54]: 1.84 µM | GI50 [55]: 1.83 µM | TGI [55]: 6.09 µM | GI50 [56]: 1.4 µM | TGI [56]: 4.15 µM | GI50 [57]: 0.872 µM | TGI [57]: > 19.9 µM | GI50 [58]: 2 µM | TGI [58]: 15 µM
